Test results: the supplement of paper PMC10627819

Columns and labels:
B. subtilis 168 [1] = assay: fitness (endpoint OD595 vs no drug) (fraction); higher = more growth
Method in brief: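 Plates with 384 wells were inoculated at OD595 0.01 using 30 µl of TSB, LB Lennox or CY, or 55 µl for S. pneumoniae. Incubation was at 37 °C, with OD595 measured every 30 min for 14 h. Fitness is the stationary-phase transition optical density over the robust mean of no-drug control wells, after first-reading background subtraction; it is capped at 1.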

S. aureus DSM 20231 = assay: Bliss interaction score (quartile over a dose matrix) (fitness difference); higher = more antagonism (negative = synergy)
Method in brief: (§1)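 Fitness was OD595 at entry into stationary phase divided by the plate's robust no-drug mean and capped at 1; single-drug fitness was inferred from combination data. The Bliss score is observed minus expected (product) fitness, summarised by quartiles over technical, biological and donor/recipient replicates.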

S. aureus Newman = assay: as above
Method in brief: as §1

S. pneumoniae D39V = assay: as above
Method in brief: as §1

B. subtilis 168 [2] = assay: as above
Method in brief: as §1
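Throughout, for Bliss interaction score (quartile over a dose matrix): first quartile when negative (synergy) and third quartile when positive (antagonism).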

CO[C@@H]1[C@@H](OC(N)=O)[C@@H](O)[C@H](Oc2ccc3c(O)c(NC(=O)c4ccc(O)c(CC=C(C)C)c4)c(=O)oc3c2C)OC1(C)C [Novobiocin] + COc1ccc(C[C@H](N)C(=O)N[C@H]2[C@@H](O)[C@H](n3cnc4c(N(C)C)ncnc43)O[C@@H]2CO)cc1 [Puromycin]
fitness, B. subtilis 168 [1]
Details | first compound 0.0125 µg/mL | first compound 0.025 µg/mL | first compound 0.05 µg/mL
partner 0.39 µg/mL | 0.948 | 0.948 | 0.973
partner 0.78 µg/mL | 0.954 | 0.964 | 0.938
partner 1.56 µg/mL | 0.956 | 0.907 | 0.971

fitness, B. subtilis 168 [1], one replicate
Details | first compound 0.125 µg/mL | first compound 0.25 µg/mL | first compound 0.5 µg/mL
partner 0.39 µg/mL | 0.89 | 0.819 | 0.554
partner 0.78 µg/mL | 0.962 | 0.953 | 0.655
partner 1.56 µg/mL | 0.905 | 0.853 | 0.544

Details | Bliss interaction score
B. subtilis 168 [2] | 0.0583
S. aureus DSM 20231 | -0.0356
S. aureus Newman | -0.0461
S. pneumoniae D39V | 0.105

CO[C@@H]1[C@@H](OC(N)=O)[C@@H](O)[C@H](Oc2ccc3c(O)c(NC(=O)c4ccc(O)c(CC=C(C)C)c4)c(=O)oc3c2C)OC1(C)C [Novobiocin] + CC1=C\[C@@H](O)CC(=O)Cc2nc(co2)C(=O)N2CCC=C2C(=O)O[C@H](C(C)C)[C@H](C)/C=C/C(=O)NC\C=C\1 [Virginiamycin M1]
fitness, B. subtilis 168 [1]
Details | first compound 0.0125 µg/mL | first compound 0.025 µg/mL | first compound 0.05 µg/mL
partner 0.0625 µg/mL | 0.925 | 0.987 | 0.97
partner 0.125 µg/mL | 0.942 | 0.954 | 0.948
partner 0.25 µg/mL | 0.922 | 0.997 | 0.937

fitness, B. subtilis 168 [1], one replicate
Details | first compound 0.125 µg/mL | first compound 0.25 µg/mL | first compound 0.5 µg/mL
partner 0.0625 µg/mL | 0.967 | 0.867 | 0.58
partner 0.125 µg/mL | 0.973 | 0.875 | 0.571
partner 0.25 µg/mL | 0.927 | 0.884 | 0.561

Details | Bliss interaction score
B. subtilis 168 [2] | 0.0734
S. aureus DSM 20231 | 0.0833
S. aureus Newman | 0.0284
S. pneumoniae D39V | 0.108

CO[C@@H]1[C@@H](OC(N)=O)[C@@H](O)[C@H](Oc2ccc3c(O)c(NC(=O)c4ccc(O)c(CC=C(C)C)c4)c(=O)oc3c2C)OC1(C)C [Novobiocin] + CN(C)c1cc(NC(=O)CNC(C)(C)C)c(O)c2c1C[C@H]1C[C@H]3[C@H](N(C)C)C(O)=C(C(N)=O)C(=O)[C@@]3(O)C(O)=C1C2=O [Tigecycline]
fitness, B. subtilis 168 [1]
Details | first compound 0.0125 µg/mL | first compound 0.025 µg/mL | first compound 0.05 µg/mL
partner 0.039 µg/mL | 0.971 | ≥ 1 | ≥ 1
partner 0.078 µg/mL | 0.952 | 0.986 | 0.977
partner 0.156 µg/mL | 0.937 | 0.964 | 0.947

fitness, B. subtilis 168 [1], one replicate
Details | first compound 0.05 µg/mL | first compound 0.1 µg/mL | first compound 0.125 µg/mL | first compound 0.2 µg/mL | first compound 0.25 µg/mL | first compound 0.5 µg/mL
partner 0.039 µg/mL | – | – | 0.893 | – | 0.888 | 0.501
partner 0.078 µg/mL | – | – | 0.924 | – | 0.818 | 0.508
partner 0.125 µg/mL | ≥ 1 | ≥ 1 | – | ≥ 1 | – | –
partner 0.156 µg/mL | – | – | 0.866 | – | 0.77 | 0.607
partner 0.25 µg/mL | 0.943 | 0.95 | – | ≥ 1 | – | –
partner 0.5 µg/mL | 0.953 | ≥ 1 | – | 0.999 | – | –

Details | Bliss interaction score
B. subtilis 168 [2] | 0.034
S. aureus DSM 20231 | 0.079
S. aureus Newman | 0.03
S. pneumoniae D39V | 0.0803

CC[C@H](C)[C@H](N)C1=N[C@H](C(=O)N[C@@H](CC(C)C)C(=O)N[C@H](CCC(=O)O)C(=O)N[C@H](C(=O)N[C@H]2CCCCNC(=O)[C@H](CC(N)=O)NC(=O)[C@@H](CC(=O)O)NC(=O)[C@H](Cc3cnc[nH]3)NC(=O)[C@@H](Cc3ccccc3)NC(=O)[C@H]([C@@H](C)CC)NC(=O)[C@@H](CCCN)NC2=O)[C@@H](C)CC)CS1 [Bacitracin] + CN(C)C(=O)C(CCN1CCC(O)(c2ccc(Cl)cc2)CC1)(c1ccccc1)c1ccccc1 [Loperamide]
fitness, B. subtilis 168 [1], main component drawn
Details | first compound 37.5 µg/mL | first compound 75 µg/mL | first compound 150 µg/mL
partner 25 µg/mL | 0.598 | – | –
partner 50 µg/mL | – | 0.0219 | 0.0315
partner 100 µg/mL | 0.0325 | 0.0281 | 0.0237

main component drawn
Details | Bliss interaction score
B. subtilis 168 [2] | -0.13
S. aureus DSM 20231 | -0.0677
S. aureus Newman | -0.0942
S. pneumoniae D39V | 0.1

CO[C@@H]1[C@@H](OC(N)=O)[C@@H](O)[C@H](Oc2ccc3c(O)c(NC(=O)c4ccc(O)c(CC=C(C)C)c4)c(=O)oc3c2C)OC1(C)C [Novobiocin] + CCN(CC)CCOC(=O)c1ccc(N)cc1 [Procaine]
fitness, B. subtilis 168 [1]
Details | first compound 0.0125 µg/mL | first compound 0.025 µg/mL | first compound 0.05 µg/mL
partner 85.5 µg/mL | 0.915 | 0.973 | 0.863
partner 171 µg/mL | 0.921 | 0.974 | 0.865
partner 342 µg/mL | 0.898 | 0.884 | 0.87

fitness, B. subtilis 168 [1], one replicate
Details | first compound 0.125 µg/mL | first compound 0.25 µg/mL | first compound 0.5 µg/mL
partner 85.5 µg/mL | 0.905 | 0.822 | 0.543
partner 171 µg/mL | 0.856 | 0.821 | 0.562
partner 342 µg/mL | 0.866 | 0.784 | 0.638

Details | Bliss interaction score
B. subtilis 168 [2] | 0.0449
S. aureus DSM 20231 | 0.0431
S. aureus Newman | 0.0326
S. pneumoniae D39V | -0.109

CO[C@@H]1[C@@H](OC(N)=O)[C@@H](O)[C@H](Oc2ccc3c(O)c(NC(=O)c4ccc(O)c(CC=C(C)C)c4)c(=O)oc3c2C)OC1(C)C [Novobiocin] + CN(N=O)C(=O)N[C@@H](C=O)[C@@H](O)[C@H](O)[C@H](O)CO [Streptozotocin]
fitness, B. subtilis 168 [1], one replicate
Details | first compound 0.0125 µg/mL | first compound 0.025 µg/mL | first compound 0.05 µg/mL | first compound 0.125 µg/mL | first compound 0.25 µg/mL | first compound 0.5 µg/mL
partner 0.15 µg/mL | 0.914 | ≥ 1 | 0.877 | 0.869 | 0.925 | 0.516
partner 0.3 µg/mL | 0.982 | ≥ 1 | ≥ 1 | 0.858 | 0.839 | 0.516
partner 0.6 µg/mL | 0.993 | ≥ 1 | 0.945 | ≥ 1 | 0.871 | 0.504

Details | Bliss interaction score
B. subtilis 168 [2] | 0.0669
S. aureus DSM 20231 | 0.0969
S. aureus Newman | 0.0508
S. pneumoniae D39V | -0.105

CO[C@@H]1[C@@H](OC(N)=O)[C@@H](O)[C@H](Oc2ccc3c(O)c(NC(=O)c4ccc(O)c(CC=C(C)C)c4)c(=O)oc3c2C)OC1(C)C [Novobiocin] + Cc1cc(NS(=O)(=O)c2ccc(N)cc2)no1 [Sulfamethoxazol]
fitness, B. subtilis 168 [1]
Details | first compound 0.0125 µg/mL | first compound 0.025 µg/mL | first compound 0.05 µg/mL
partner 1 µg/mL | 0.932 | 0.959 | 0.951
partner 2 µg/mL | 0.968 | 0.955 | 0.876
partner 4 µg/mL | 0.966 | 0.989 | 0.92

fitness, B. subtilis 168 [1], one replicate
Details | first compound 0.05 µg/mL | first compound 0.1 µg/mL | first compound 0.125 µg/mL | first compound 0.2 µg/mL | first compound 0.25 µg/mL | first compound 0.5 µg/mL
partner 0.5 µg/mL | 0.972 | ≥ 1 | – | ≥ 1 | – | –
partner 1 µg/mL | – | 0.864 | 0.999 | 0.81 | 0.897 | 0.49
partner 2 µg/mL | – | 0.814 | 0.927 | 0.885 | 0.838 | 0.507
partner 4 µg/mL | – | – | ≥ 1 | – | 0.909 | 0.482

Details | Bliss interaction score
B. subtilis 168 [2] | 0.0447
S. aureus DSM 20231 | 0.0483
S. aureus Newman | 0.041
S. pneumoniae D39V | -0.0959
